The text below walks through data of patent US4721713A, “Process for inhibiting blood platelet aggregation and promoting vasodilation” (Toyo Jozo Kabushiki Kaisha, priority 1986, dated 1988).

Series [1] deals with microorganism strains TA100, TA1535, WP2 uvr A, TA98, TA1537 and TA1538. In words: Mutagenicity, backward mutation test. The format is cell-based. How it is done:
A backward mutation test using microorganism strains TA100, TA1535, WP2 uvr A, TA98, TA1537 and TA1538 was performed by the method according to Iyer et al. [N. Y. Iyer and W. Szybalski, Appl. Microbiol., 6: 37 (1958)]. The test agents were tenfold diluted in six stages of concentration of 0.00333-333 μg/disc.

The next series deals with anoxia. In words: Protective effect against anoxia. The format is in vivo, Male ddY strain mice. Conditions: for Survival Time: 200 mg/kg p.o., mean ± S.E. How it is done: The present compound and a control were administered per orally 30 or 60 mins. before the test.
Series [2] concerns blood flow in left hind leg. In words: Vasodilating activity upon intra-arterial administration (perfused left hind leg). The format is in vivo, Mongrel dogs. Conditions: for Vasodilating Activity (relative to blood flow increase by papaverine 30 μg as 100%): 100 μg, i.a., mean ± S.E. for 3 animals. How it is done: Mongrel dogs anesthetized with urethane (450 mg/kg iv) and α-chlora-lose (45 mg/kg iv) after pretreatment with morphine (1.5 mg/kg, sc) were secured in a supine position. Blood from the right femoral artery was introduced into the left femoral artery through a circulation pump and the left hind leg was perfused under constant pressure by connection with a Starling's resistance in an exosomatic circulatory system. The prefusion pressure was set slightly higher than the mean blood pressure of each animal and the change in blood flow upon intra-arterial injection of the test compound was determined. The results, showing specific activity as compared with a value indicating the degree of increase in the amount of blood flow by papaverine (30 μg, iv) as 100%, are shown in Table 4.

In another series the test system is PAF-induced shock. Kind of series: Effect against platelet activated factor (PAF)-induced shock. The series is classed as in vivo, Male ddY strain mice. Conditions: 100 mg/kg p.o. Here is the method:
Male ddY strain mice, male, 10 animals in a group, were administered per orally the compound of the present invention (100 mg/kg), and after one hour PAF (60 μg/kg) was administered intravenously to determine the ratio of mortality.

The subject of series [3] is number of platelets in the circulating blood. Kind of series: Effect in vivo: number of platelets in circulating blood after E. coli lipopolysaccharide. Also noted: species or system Male Wistar rats. As to conditions: for Number of Platelets, Exp. 1 / Number of Platelets, Exp. 2: ratio pre- and post-administration, LPS 5 mg/kg i.p., 3 hours. How it is done: Male Wistar rats, five animals in a group, were administered per orally the agents to be tested. After one hour, E. coli lipopolysaccharide (5 mg/kg) was injected intraperitoneally and 3 hours thereafter blood samples were collected and measured as to the number of platelets in the circulating blood to determine the ratio of platelets pre- and post-administration of the agents. The tests were repeated twice.

Series [4] deals with platelet aggregation in platelet-rich rabbit plasma. Kind of series: Inhibitory effect on blood platelet aggregation, effect in vitro (ADP-induced). The format is cell-based. As to conditions: for inhibition at 100 µM: Oryctolagus cuniculus, Platelet, 0.05 h, read-out: Inhibition Ratio on Platelet Aggregation (Mean ± S.E). How it is done:
An aggregating agent, adenosine-5'-diphosphate (final concentration 2.5 μM), was added thereto and the platelet aggregating potential was measured with an aggregometer.

For series [5], the system named is arterial blood flow (vertebral, coronary, renal, femoral). In words: Vasodilating activity upon intravenous administration (regional arterial blood flow). The format is in vivo, mongrel dog. Conditions: FIG. 1. The text has this: A cuff-type probe for measuring blood flow was applied to the left vertebral artery, the left anterior descending coronary artery, the left renal artery and the right femoral artery of a mongrel dog anesthetized in the same way as hereinabove and the blood flow was continuously measured. The blood pressure was monitored by a pressure transducer connected to a cannula inserted into the left femoral artery, and the heart rate was monitored through a tachometer by triggering the R-wave of lead II of an electrocardiograph. The agent to be tested was injected into the left venous cephalica. The results are shown in FIG. 1, in which the ordinate indicates the response ratio and the abscissa indicates dosages by intravenous administration, and in which

A further series relates to mice. Kind of series: Acute toxicity in mice. The series is classed as in vivo. As to conditions: intravenous 100 mg/kg.
The next series is described as follows: Acute toxicity in mice. The format is in vivo. As to conditions: mouse, in vivo.
For series [6], the system named is experimental disseminated intravascular coagulation. Kind of series: Effect on disseminated intravascular coagulation (E. coli lipopolysaccharide infusion). The format is in vivo, Male Wistar rats. Conditions: 100 mg/kg p.o. Here is the method:
Male Wistar rats, seven animals in a group, were administered per orally the agents (100 mg/kg) to be tested. After one hour, E. coli lipopolysaccharide (50 mg/kg) was continuously injected intravenously for four hours. A control group was given physiological saline intravenously under the same conditions.
Blood was collected immediately after finishing the injection to measure the number of platelets, the activated partial thromboplastin time, the prothrombin time and the amount of fibrinogen. In the control group, in which E. coli lipopolysaccharide was injected, a marked decrease in the number of platelets and the amount of fibrinogen and a marked prolongation of the activated partial thromboplastin time and the prothrombin time are observed.

Series [7] concerns L5178Y murine lymphoblastoma. In words: Cytotoxicity. The series is classed as cell-based. Conditions: 37° C. for 18 hours. How it is done: To L5178Y murine lymphoblastoma (2×10^4 cells/ml) suspended in a medium (27 ml) comprising Fischer's culture medium including 10% bovine serum, were added test agents in solution (0.3 ml) diluted with a culture medium and the material was incubated at 37° C. for 18 hours. Growth of the cells was determined by color change. Growth inhibition of the cells was not observed at any concentration of 20 μg/ml and 100 μg/ml of the compound of the present invention, and so no cytotoxicity was observed.

Another series has as its system rats. In words: Acute toxicity in rats. The format is in vivo, male Wister rats.
A further series can be described thus: Acute toxicity in rats. The format is in vivo, male Wister rats. As to conditions: rat, in vivo; oral, rats.
[8] abbreviates: PAF 60 μg/kg i.v. after one hour.
[9] abbreviates: final concentration 100 μM, ADP 2.5 μM, 37° C. for 3 minutes.
[10] abbreviates: final concentration 100 μM, ADP 2.5 μM.
The mark [11] stands for this setting: LPS 50 mg/kg i.v. over four hours.

Like-named read-outs stand apart in the source and are kept apart here.

On to `Cc1nc(O)c(C(C)C)nc1C.Cl` [Present compound, 2-hydroxy-3-isopropyl-5,6-dimethylpyrazine hydrochloride], for which, in series [1] (0.00333-333 μg/disc, any concentration), the Mutagenesis entry is given as “No mutagenesis was found”. In addition, the “Mutagenesis under metabolic activation” value in series [1] (metabolic activation using an S-9 mixture) is “no mutagenesis was observed”. Also, the “Survival Time” value in the series with anoxia (pretreatment time 30 min.) was 42.7 ± 1.6 s. Besides, the “Survival Time” value in the series on anoxia (pretreatment time 60 min.) is 48.1 ± 1.9 s. Further, in the series with anoxia (pretreatment per orally), the “Survival time (in words)” value is recorded as “Significant prolongation of survival time”. Moreover, the “Vasodilating Activity (relative to blood flow increase by papaverine 30 μg as 100%)” value in [2] came to 100.7 ± 19.1%. The “Vasodilating activity compared with tetramethylpyrazine (in words)” value in [2] (intra-arterial) is reported as “markedly stronger vasodilating activity than that of the control drug, tetramethylpyrazine”. Also, in the series with PAF-induced shock, the “Action against PAF-induced shock (in words)” value is reported as “protective action”. Moreover, in the series on PAF-induced shock (setting [8]), the “Mortality, Experiment 1” value is recorded as 1/10 and the “Mortality, Experiment 2” value is reported as 3/10. In series [3] (100 mg/kg p.o.), the “Number of Platelets, Exp. 1” value was 58.2 ± 7.8% and the “Number of Platelets, Exp. 2” value stood at 55.9 ± 14.0%. The “Effect on decrease of platelet number (in words)” value in [3] (100 mg/kg per orally, compared with ticlopidine 200 mg/kg oral) was “inhibits the decrease of platelet number, which is comparable to an oral dose of 200 mg/kg ticlopidine”. For the same molecule, the inhibition at 100 µM in series [4] (setting [9]) turned out to be 69.6 ± 5.4%. Besides, the “Inhibitory effect on blood platelet aggregation (in words)” value (from here on “Inhibitory effect”) in series [4] (setting [10]) is on record as “distinct inhibitory effect”. For the same molecule, in series [5], the “Coronary arterial blood flow (in words)” value is reported as “increases blood flow in the vertebral artery, in the coronary artery”; the “Femoral arterial blood flow (in words)” value is “increases blood flow in the vertebral artery, in the coronary artery and in the femoral artery”; the “Renal arterial blood flow (in words)” value was “does not affect the renal arterial blood flow”; the “Selectivity for vertebral and coronary arterial blood flow (in words)” value is “Selective effects on the vertebral arterial blood flow and the coronary arterial blood flow”. Further, the “Vertebral arterial blood flow (in words)” value in series [5] is “increases blood flow in the vertebral artery”. Moreover, the Death result with mice is “no death was observed”. The LD50 – broadly, the dose expected to kill half of the subjects tested – in the series “Acute toxicity in mice” (intravenous, read-out: LD50) was about 200 mg/kg. For the same molecule, the LD50 in the series “Acute toxicity in mice” (oral, read-out: LD50 oral) was 555 mg/kg. For the same molecule, in [6] (setting [11]), the “Activated Partial Thromboplastin Time” value was 48.5 ± 7.4 s, the Fibrinogen worked out at 77.2 ± 13.1 mg/dL, the “Platelet Number” value is 177 ± 51 × 10^3 /mm^3 and the “Prothrombin Time” value came out at 14.3 ± 1.4 s. Further, in series [6] (experimental disseminated intravascular coagulation), the “Effect against all the factors tested (in words)” value is listed as “significant effect against all the factors tested”. The “Growth inhibition of the cells” value in [7] (20 μg/ml) is reported as “not observed”. In addition, the “Growth inhibition of the cells” value in series [7] (100 μg/ml) is given as “not observed”. Further, in the series on rats (intravenous 50 mg/kg, rats), the Death entry was “no death was observed”. Besides, the “Dose attainable due to the solubility of the compound” value with rats (rat, in vivo, iv) was “up to 50 mg/kg”. Besides, in the series “Acute toxicity in rats”, the LD50 amounted to 903 mg/kg.
As to `CC(=O)Oc1ccccc1C(=O)O` [Acetyl salicylic acid, acetyl salicylic acid], the inhibition at 100 µM in series [4] is -0.6 ± 0.6%. Moreover, in series [4] (setting [10]), the “Inhibitory effect” value is given as “no inhibitory effect”.
In the case of `Cc1nc(C)c(C)nc1C` [Tetramethylpyrazine, tetramethylpyrazine], the “Vasodilating Activity (relative to blood flow increase by papaverine 30 μg as 100%)” value in series [2] is given as 19.3 ± 0.9%. Further, the inhibition at 100 µM in [4] (setting [9]) stood at 3 ± 1.6%. For the same molecule, the “Inhibitory effect” value in [4] (setting [10]) is “no inhibitory effect”.
As for `Clc1ccccc1CN1CCc2sccc2C1` [Ticlopidine, ticlopidine, reference compound], in [3] (200 mg/kg p.o.), the “Number of Platelets, Exp. 1” value is listed as 57.9 ± 12.0% and the “Number of Platelets, Exp. 2” value is 63.4 ± 19.4%. Moreover, the inhibition at 100 µM in series [4] (setting [9]) was -1.2 ± 1.2%. Further, the “Inhibitory effect” value in [4] (setting [10]) is “no inhibitory effect”.
